Measurements taken from publication PMC4858680, “A platinum-based hybrid drug design approach to circumvent acquired resistance to molecular targeted tyrosine kinase inhibitors” (Scientific Reports, 2016).

Legend:
DDR2 = biological target: T1, DDR2 (Homo sapiens, UniProt Q16832); details: 10 μM
T1 sequence (Q16832 22-855): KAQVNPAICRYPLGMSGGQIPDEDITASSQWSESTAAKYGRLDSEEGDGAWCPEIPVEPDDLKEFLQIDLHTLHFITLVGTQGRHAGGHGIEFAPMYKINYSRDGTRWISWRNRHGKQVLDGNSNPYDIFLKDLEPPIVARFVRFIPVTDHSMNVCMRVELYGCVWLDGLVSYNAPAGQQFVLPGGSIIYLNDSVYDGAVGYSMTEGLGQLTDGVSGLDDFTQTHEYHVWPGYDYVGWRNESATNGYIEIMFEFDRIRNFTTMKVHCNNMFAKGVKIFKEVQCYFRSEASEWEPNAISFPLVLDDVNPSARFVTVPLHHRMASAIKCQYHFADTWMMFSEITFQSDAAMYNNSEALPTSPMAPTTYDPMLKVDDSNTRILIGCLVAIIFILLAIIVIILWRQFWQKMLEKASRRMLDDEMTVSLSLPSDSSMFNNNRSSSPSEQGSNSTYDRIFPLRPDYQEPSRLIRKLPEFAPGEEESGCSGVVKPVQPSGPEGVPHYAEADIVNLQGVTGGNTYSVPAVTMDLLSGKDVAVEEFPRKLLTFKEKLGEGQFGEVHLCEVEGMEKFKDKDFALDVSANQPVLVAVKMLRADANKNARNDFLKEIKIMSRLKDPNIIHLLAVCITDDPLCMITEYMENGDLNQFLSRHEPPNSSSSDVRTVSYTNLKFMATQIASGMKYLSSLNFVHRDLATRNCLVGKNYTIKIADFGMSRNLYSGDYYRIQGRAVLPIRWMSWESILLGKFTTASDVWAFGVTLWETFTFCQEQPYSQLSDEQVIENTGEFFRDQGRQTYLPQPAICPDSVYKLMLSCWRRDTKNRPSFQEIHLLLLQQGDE

EPHB2 = biological target: T2, EPHB2 (Homo sapiens, UniProt P29323); details: 10 μM
T2 sequence (P29323 19-1055): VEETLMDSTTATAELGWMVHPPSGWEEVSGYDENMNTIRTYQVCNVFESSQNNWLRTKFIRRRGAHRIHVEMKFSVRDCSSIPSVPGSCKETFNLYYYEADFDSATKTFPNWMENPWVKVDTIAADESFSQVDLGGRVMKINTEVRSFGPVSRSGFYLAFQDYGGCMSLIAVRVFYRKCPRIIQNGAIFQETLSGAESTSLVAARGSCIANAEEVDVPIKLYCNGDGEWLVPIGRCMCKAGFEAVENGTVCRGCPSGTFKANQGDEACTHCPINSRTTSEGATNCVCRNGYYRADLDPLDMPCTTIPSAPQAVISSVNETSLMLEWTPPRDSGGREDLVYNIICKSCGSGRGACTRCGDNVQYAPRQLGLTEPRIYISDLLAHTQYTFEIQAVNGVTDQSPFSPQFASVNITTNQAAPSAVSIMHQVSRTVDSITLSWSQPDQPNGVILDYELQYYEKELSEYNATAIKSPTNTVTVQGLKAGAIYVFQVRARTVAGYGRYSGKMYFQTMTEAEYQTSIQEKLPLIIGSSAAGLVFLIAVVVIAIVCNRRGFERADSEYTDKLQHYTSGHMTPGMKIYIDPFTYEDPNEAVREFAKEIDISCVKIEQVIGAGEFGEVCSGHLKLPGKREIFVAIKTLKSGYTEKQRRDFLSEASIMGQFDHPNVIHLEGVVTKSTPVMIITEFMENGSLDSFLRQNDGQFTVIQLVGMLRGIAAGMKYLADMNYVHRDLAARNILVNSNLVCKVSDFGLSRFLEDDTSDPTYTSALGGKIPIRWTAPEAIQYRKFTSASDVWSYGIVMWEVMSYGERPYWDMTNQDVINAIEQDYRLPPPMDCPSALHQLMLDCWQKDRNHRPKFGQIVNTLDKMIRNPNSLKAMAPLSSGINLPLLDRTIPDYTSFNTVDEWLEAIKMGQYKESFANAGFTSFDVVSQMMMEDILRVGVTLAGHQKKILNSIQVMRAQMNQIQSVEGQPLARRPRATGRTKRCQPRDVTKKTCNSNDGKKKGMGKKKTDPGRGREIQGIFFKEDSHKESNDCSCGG

RET(M918T) = RET(M918T) (Homo sapiens, UniProt P07949, M918T); details: 10 μM
RET(M918T), sequence (P07949 29-1114 M918T): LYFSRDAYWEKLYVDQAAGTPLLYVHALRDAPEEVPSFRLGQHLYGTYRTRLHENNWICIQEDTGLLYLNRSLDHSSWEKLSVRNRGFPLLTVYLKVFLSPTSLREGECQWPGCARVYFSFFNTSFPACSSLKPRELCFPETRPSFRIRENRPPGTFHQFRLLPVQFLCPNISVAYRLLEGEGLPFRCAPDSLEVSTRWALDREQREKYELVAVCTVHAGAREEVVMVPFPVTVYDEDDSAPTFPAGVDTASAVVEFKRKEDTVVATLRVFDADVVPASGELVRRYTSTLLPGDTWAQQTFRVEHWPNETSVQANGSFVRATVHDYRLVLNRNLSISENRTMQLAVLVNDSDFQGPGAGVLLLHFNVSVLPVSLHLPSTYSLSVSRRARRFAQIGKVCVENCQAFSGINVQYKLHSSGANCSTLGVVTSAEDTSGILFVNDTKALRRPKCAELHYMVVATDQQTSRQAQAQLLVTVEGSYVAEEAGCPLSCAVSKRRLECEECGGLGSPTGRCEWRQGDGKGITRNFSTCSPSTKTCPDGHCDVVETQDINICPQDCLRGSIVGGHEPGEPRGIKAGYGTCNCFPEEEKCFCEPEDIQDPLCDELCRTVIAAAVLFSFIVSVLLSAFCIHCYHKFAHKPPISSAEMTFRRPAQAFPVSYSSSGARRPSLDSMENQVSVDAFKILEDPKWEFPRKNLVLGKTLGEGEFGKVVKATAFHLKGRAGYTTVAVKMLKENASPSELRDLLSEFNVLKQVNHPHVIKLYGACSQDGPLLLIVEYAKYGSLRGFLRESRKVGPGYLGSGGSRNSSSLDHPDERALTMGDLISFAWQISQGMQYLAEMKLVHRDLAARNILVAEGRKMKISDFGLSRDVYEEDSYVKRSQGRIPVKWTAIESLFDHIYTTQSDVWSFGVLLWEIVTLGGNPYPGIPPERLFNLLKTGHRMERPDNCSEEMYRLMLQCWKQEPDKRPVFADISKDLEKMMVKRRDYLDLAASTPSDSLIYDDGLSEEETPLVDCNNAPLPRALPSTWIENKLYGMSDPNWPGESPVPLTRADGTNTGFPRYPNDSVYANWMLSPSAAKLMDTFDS

EPHA6 = biological target: T3, EPHA6 (Homo sapiens, UniProt Q9UF33); details: 10 μM
T3 sequence (Q9UF33 23-1036): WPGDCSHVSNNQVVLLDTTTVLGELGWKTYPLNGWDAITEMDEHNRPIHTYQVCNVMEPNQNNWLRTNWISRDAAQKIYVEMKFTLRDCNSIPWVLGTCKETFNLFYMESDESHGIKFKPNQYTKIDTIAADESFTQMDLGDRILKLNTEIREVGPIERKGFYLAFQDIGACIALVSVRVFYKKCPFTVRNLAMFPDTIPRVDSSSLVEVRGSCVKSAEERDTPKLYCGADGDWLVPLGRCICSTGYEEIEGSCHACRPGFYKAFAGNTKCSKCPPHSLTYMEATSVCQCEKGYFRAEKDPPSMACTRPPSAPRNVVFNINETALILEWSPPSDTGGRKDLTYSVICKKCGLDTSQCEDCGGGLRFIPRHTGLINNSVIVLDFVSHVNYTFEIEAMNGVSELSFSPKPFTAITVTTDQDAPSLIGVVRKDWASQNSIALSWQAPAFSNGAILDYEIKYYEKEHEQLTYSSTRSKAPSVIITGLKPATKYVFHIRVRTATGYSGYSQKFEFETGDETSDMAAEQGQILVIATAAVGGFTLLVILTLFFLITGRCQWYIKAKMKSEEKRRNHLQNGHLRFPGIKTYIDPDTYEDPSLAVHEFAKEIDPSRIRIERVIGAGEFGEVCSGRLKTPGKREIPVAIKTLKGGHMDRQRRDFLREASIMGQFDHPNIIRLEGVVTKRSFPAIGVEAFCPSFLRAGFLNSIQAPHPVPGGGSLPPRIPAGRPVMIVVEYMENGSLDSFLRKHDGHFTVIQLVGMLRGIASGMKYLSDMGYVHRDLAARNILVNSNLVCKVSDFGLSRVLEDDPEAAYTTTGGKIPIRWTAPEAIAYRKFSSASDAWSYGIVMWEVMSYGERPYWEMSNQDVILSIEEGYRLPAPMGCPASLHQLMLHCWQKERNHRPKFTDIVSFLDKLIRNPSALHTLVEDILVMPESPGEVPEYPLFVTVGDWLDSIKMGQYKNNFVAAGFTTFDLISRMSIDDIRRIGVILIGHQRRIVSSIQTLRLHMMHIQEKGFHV

ROS1 = ROS1 (Homo sapiens, UniProt P08922); details: 10 μM
ROS1, sequence (P08922 28-2347): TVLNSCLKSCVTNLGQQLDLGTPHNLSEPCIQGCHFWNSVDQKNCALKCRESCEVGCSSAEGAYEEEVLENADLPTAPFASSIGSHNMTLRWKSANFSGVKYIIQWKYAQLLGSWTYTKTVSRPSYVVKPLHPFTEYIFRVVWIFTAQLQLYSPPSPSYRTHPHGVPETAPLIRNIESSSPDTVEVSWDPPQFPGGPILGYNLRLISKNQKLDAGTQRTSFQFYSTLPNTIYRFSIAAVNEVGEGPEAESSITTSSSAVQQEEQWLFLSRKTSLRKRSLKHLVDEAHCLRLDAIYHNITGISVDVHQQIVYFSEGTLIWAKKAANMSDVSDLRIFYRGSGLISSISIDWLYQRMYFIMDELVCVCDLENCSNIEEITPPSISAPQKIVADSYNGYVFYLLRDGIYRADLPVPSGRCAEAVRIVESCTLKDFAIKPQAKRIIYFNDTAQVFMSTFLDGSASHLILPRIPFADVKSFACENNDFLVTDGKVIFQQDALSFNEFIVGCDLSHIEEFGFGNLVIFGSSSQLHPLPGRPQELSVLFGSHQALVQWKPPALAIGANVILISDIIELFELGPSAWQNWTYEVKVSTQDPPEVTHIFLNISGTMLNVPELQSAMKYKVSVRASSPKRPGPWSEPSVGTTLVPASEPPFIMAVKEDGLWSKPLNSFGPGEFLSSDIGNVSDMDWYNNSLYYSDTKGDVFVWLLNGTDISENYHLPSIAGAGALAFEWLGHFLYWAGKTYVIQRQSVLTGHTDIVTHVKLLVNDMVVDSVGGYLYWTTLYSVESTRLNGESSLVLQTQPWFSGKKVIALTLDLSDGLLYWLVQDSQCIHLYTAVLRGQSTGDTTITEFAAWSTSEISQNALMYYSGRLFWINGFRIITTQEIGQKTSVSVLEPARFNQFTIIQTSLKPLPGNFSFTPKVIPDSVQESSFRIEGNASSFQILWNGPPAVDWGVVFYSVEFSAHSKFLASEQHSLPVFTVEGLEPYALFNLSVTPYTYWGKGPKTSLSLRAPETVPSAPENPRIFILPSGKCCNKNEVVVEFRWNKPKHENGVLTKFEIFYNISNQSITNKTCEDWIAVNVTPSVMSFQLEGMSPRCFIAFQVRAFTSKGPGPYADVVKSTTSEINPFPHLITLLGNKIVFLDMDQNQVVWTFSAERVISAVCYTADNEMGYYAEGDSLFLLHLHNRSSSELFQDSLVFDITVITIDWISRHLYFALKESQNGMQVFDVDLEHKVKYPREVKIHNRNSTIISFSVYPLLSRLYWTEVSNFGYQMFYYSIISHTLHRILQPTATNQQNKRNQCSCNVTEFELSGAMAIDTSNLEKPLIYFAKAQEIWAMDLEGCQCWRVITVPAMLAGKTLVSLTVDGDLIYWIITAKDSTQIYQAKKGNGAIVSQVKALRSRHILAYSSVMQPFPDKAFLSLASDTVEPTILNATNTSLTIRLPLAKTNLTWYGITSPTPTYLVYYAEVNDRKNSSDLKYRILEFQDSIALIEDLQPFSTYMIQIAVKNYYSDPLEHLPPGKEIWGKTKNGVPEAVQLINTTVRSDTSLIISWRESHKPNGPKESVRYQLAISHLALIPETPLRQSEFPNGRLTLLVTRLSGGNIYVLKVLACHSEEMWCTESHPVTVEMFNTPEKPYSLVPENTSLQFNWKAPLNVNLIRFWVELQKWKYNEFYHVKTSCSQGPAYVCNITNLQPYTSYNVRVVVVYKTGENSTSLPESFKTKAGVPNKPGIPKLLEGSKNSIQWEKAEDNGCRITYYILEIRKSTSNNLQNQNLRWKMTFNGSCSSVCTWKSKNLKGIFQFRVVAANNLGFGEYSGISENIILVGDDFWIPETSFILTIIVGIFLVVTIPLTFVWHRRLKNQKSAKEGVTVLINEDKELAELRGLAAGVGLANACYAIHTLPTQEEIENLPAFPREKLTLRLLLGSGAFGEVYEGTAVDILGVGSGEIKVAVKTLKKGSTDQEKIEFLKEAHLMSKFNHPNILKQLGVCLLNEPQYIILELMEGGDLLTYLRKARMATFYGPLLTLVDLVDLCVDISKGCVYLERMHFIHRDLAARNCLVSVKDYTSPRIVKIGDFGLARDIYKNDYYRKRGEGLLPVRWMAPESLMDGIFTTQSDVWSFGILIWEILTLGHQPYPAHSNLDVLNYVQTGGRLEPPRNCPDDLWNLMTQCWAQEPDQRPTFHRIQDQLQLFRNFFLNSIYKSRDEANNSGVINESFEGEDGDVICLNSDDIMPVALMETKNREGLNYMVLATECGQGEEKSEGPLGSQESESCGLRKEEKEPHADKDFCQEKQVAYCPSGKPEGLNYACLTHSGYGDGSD

KIT(A829P) = KIT(A829P) (Homo sapiens, UniProt P10721, A829P); experiment: biochemical; details: read-out: Percent control
KIT(A829P), sequence (P10721 26-976 A829P): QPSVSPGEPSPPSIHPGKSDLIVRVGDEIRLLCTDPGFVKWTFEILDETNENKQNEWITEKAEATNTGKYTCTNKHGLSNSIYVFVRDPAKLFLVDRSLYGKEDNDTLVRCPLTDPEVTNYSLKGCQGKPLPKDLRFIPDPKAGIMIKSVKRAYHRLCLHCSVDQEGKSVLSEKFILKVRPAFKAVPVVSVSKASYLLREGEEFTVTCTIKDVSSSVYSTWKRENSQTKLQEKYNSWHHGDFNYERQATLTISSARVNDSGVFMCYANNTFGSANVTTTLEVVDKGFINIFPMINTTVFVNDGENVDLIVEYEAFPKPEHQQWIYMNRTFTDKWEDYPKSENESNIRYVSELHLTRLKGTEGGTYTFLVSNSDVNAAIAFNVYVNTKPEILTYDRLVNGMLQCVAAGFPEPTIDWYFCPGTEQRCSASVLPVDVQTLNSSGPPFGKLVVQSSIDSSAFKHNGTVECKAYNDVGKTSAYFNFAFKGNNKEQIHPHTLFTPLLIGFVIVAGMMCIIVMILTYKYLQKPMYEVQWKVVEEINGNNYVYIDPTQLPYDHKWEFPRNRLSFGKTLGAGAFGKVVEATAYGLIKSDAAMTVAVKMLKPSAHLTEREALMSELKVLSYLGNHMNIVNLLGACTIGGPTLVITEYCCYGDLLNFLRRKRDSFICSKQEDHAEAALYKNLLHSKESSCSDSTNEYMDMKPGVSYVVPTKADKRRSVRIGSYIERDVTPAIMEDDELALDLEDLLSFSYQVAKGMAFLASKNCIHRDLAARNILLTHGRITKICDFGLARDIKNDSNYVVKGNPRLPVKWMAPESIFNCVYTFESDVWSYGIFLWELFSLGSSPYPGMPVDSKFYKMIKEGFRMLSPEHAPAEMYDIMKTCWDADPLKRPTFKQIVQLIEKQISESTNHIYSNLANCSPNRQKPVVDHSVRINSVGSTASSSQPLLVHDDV

Structure (SMILES)	Percent control (DDR2) [%]	Percent control (EPHB2) [%]	Percent control (RET(M918T)) [%]	Percent control (EPHA6) [%]	Percent control (ROS1) [%]	remaining activity at 10 µM (KIT(A829P)) [%]
Cc1ccc(NC(=O)c2ccc(CN3CCN(C)CC3)cc2)cc1Nc1nccc(-c2cccnc2)[n+]1[Pt-2]1([Cl])[NH2+]C2CCCCC2[NH2+]1 (stereo not drawn) [1b, oxaliplatin-imatinib]	10	95	88	90	32	
C#Cc1cccc(Nc2c3cc(OCCOC)c(OCCOC)cc3nc[n+]2[Pt@SP2-2]([NH3+])([NH3+])[Cl])c1 [2a, cisplatin-erlotinib]	100	94	61	71	91	
COc1cc2c(Nc3ccc(Br)cc3F)[n+]([Pt-2]3([Cl])[NH2+]C4CCCCC4[NH2+]3)cnc2cc1OCC1CCN(C)CC1 (stereo not drawn) [3b, oxaliplatin-vandetanib]	0.21	69		6.3	74	
C#Cc1cccc(Nc2ncnc3cc(OCCOC)c(OCCOC)cc23)c1 [Erlotinib]						100
Cc1ccc(NC(=O)c2ccc(CN3CCN(C)CC3)cc2)cc1Nc1nccc(-c2cccnc2)n1 [Imatinib, reference compound]	0.1		100	100	100	0.1
COc1cc2c(Nc3ccc(Br)cc3F)ncnc2cc1OCC1CCN(C)CC1 [Vandetanib, reference compound]						0.3
